Data taken from patent US8877754B2, “Compounds, pharmaceutical compositions and uses thereof” (Boehringer Ingelheim International GmbH, priority 2010, dated 2014).

Target: T1, human ACC2 (Homo sapiens, UniProt O00763)
T1 construct: made in house; host or cells: insect cells, baculoviral expression system
Test: ACC2 assay, spectrophotometric 384 well assay (NADH-linked, coupled lactate dehydrogenase/pyruvate kinase)
Assay type: biochemical
Conditions: hACC2 construct lacking the 128 N-terminal amino acids; 25° C., 340 nm, 15 minutes
Procedure: Spectrophotometric 384 Well Assay
Malonyl CoA formation by acetyl CoA carboxylases is stoichometrically linked to the consumption of ATP. ACC2 activity is measured in a NADH-linked kinetic method measuring ADP generated during the ACC reaction using a coupled lactate dehydrogenase/pyruvate kinase reaction.
For biological testing, a human ACC2 construct which lacks the 128 amino acids at the N-terminus for increased solubility (nt 385-6966 in Genbank entry AJ575592) is cloned. The protein is then expressed in insect cells using a baculoviral expression system. Protein purification is performed by anion exchange.
All compounds are dissolved in dimethyl sulfoxide (DMSO) to a concentration of 10 mM.
Assay reactions are then carried out in 384-well plates, with hACC2 in an appropriate dilution and at final assay concentrations (f.c.) of 100 mM Tris (pH 7.5), 10 mM trisodium citrate, 25 mM KHCO3, 10 mM MgCl2, 0.5 mg/mL BSA, 3.75 mM reduced L-glutathione, 15 U/mL lactate dehydrogenase, 0.5 mM phosphoenolpyruvate, 15 U/mL pyruvate kinase, compounds at different concentrations at final DMSO concentrations of 1%.
The enzymatic reaction is then started by addition of a mixture of NADH, acetyl Coenzyme A (both 200 μM f.c.) and ATP (500 uM f.c.). The decrease of the optical density (slope S) is then determined at 25° C. at a wavelength of 340 nm over 15 minutes in a spectrophotometric reader.
Each assay microtiter plate contains wells with vehicle instead of compound as controls for the non-inhibited enzyme (100% CTL; ‘HIGH’) and wells without acetyl-CoA as controls for non-specific NADH degradation (0% CTL; ‘LOW’). The slope S is used for calculation of % CTL=(S(compound)−S(‘LOW’))/(S(‘HIGH’)—S(‘LOW’))*100. Compounds will give values between 100% CTL (no inhibition) and 0% CTL (complete inhibition).
For IC50 value determination, the sample slope in the presence of the test compound after subtraction of the low controls (S(compound)−S(‘LOW’)) are used.
An IC50 value is derived from the compound slopes at different dosages after subtraction of the low controls (S(compound)−S(‘LOW’)) by non-linear regression curve fitting (equation y=(A+((B−A)/(1+((C/x)^D))))).

T1 sequence (O00763 129-2458 limits assumed): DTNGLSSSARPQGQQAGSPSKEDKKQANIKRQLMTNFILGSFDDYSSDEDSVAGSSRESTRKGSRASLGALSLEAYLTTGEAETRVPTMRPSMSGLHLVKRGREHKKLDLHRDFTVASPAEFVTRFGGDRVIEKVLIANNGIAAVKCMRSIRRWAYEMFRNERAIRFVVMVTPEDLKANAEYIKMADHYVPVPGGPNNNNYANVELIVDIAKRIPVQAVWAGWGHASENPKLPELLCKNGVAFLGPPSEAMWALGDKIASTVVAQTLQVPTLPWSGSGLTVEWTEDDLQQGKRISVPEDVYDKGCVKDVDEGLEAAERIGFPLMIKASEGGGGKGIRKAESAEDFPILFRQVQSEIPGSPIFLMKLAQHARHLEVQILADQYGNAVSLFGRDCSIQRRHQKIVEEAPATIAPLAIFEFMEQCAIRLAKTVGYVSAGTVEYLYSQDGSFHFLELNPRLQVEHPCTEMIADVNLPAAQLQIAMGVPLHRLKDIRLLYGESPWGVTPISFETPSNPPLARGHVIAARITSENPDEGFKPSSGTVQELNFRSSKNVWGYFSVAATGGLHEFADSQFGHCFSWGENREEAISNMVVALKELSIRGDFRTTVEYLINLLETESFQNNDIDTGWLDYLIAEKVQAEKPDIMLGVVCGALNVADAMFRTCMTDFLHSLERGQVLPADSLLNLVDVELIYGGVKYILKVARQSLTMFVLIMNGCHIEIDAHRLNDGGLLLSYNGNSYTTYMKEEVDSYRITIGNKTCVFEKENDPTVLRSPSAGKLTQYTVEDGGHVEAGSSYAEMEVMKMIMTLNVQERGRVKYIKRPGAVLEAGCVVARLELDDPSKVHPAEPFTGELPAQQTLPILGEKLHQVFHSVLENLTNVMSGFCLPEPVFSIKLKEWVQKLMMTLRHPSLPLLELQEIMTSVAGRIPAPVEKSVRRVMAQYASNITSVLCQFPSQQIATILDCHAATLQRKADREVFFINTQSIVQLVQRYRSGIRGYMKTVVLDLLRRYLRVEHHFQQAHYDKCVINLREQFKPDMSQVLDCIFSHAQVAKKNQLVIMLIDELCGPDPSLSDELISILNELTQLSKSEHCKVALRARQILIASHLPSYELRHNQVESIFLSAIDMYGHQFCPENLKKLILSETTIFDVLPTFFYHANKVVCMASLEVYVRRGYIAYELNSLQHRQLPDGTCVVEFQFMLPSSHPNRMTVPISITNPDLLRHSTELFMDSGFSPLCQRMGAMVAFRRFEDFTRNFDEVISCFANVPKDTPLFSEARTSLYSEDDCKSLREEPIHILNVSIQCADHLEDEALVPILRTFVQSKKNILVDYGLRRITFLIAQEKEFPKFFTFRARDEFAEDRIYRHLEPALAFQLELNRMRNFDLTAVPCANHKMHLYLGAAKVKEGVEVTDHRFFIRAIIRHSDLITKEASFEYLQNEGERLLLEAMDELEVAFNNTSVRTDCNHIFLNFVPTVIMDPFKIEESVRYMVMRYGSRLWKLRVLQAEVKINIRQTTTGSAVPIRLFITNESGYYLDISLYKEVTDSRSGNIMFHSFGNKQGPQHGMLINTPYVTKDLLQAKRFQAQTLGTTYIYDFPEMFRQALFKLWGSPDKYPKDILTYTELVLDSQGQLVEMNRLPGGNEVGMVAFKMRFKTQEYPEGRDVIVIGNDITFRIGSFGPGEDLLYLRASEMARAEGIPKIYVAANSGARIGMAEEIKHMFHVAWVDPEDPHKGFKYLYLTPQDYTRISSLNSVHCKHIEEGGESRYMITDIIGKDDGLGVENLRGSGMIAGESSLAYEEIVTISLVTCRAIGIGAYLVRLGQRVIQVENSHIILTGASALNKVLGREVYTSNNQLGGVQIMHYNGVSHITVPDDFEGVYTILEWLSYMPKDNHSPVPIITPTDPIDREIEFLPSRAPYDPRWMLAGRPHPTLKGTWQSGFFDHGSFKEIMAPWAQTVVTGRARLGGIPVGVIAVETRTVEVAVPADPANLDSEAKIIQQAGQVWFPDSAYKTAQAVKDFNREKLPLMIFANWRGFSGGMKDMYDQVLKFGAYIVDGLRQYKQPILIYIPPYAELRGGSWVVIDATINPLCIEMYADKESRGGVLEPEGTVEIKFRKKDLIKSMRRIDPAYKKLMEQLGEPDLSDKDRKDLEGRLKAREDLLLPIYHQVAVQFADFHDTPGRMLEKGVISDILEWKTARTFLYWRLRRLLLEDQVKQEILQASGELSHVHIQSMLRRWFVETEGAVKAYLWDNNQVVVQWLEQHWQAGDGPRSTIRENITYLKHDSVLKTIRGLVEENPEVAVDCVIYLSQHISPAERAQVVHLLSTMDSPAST

| SMILES | IC50 |
| --- | --- |
| CCOc1ccc(C#Cc2ccc(CC(C)C(=O)NC3CC3)cc2)cc1 (stereo not shown) [Example 1.25] | 730 nM |
| CCOc1ccc(C#Cc2ccc(C(C)C(=O)NCc3ccno3)cc2)cc1 (stereo not shown) [Example 6.18] | 18700 nM |
| CCNC(=O)C(C)c1ccc(C#Cc2ccc(OC3CCOCC3)cc2)cc1 (stereo not shown) [Example 5.2] | 1800 nM |
| CCNC(=O)C(C)c1ccc(C#Cc2ccc(OCCCOC)cc2)cc1 (stereo not shown) [Example 5.12] | 440 nM |
| CCNC(=O)C(C)c1ccc(C#Cc2ccc(OCC)nc2)cc1 (stereo not shown) [Example 7.23] | 560 nM |
| CCNC(=O)C(C)c1ccc(C#Cc2ccnc(OC(C)C)c2)cc1 (stereo not shown) [Example 7.44] | 250 nM |
| CCNC(=O)C(C)c1ccc(C#Cc2ccnc(Oc3ccccc3)c2)cc1 (stereo not shown) [Example 7.45] | 390 nM |
| CCOc1ccc(C#Cc2ccc(C(C)C(=O)NCC#N)cc2)cc1 (stereo not shown) [Example 1.11] | 660 nM |
| CCNC(=O)C(C)c1ccc(C#Cc2ccc(OCC3CCOCC3)cc2)cc1 (stereo not shown) [Example 5.13] | 890 nM |
| CCCNC(=O)C(C)c1ccc(C#Cc2ccc(OCC)cc2)cc1 (stereo not shown) [Example 1.16] | 610 nM |
| CCNC(=O)C(C)c1ccc(C#Cc2ccc(C(C)C)cc2)cc1 (stereo not shown) [Example 7.1, N-Ethyl-2-[4-(4-isopropyl-phenylethynyl)-phenyl]-propionamide] | 1300 nM |
| CCNC(=O)C(C)c1ccc(C#Cc2ccc(OC3CCCC3)nc2)cc1 (stereo not shown) [Example 7.30] | 220 nM |
| CCNC(=O)C(C)c1ccc(C#Cc2ccc(OCC(C)C)cc2)cc1 (stereo not shown) [Example 5.3] | 240 nM |
| CCNC(=O)C(C)c1ccc(C#Cc2ccc(CNc3ccccn3)cc2)cc1 (stereo not shown) [Example 7.16] | 1500 nM |
| CCNC(=O)C(C)c1ccc(C#Cc2ccc(OC(C)(C)C)cc2)cc1 (stereo not shown) [Example 7.17] | 360 nM |
| CCCOc1ccc(C#Cc2ccc(C(C)C(=O)NCC)cc2)cn1 (stereo not shown) [Example 7.47] | 490 nM |
| CCOc1ccc(C#Cc2ccc(CC(=O)NC3CC3)cc2)cc1 [Example 1.23] | 1000 nM |
| CCOc1ccc(C#Cc2ccc(C(C)C(=O)NCc3ccn(C)n3)cc2)cc1 (stereo not shown) [Example 6.22] | 1500 nM |
| CCOc1ccc(C#Cc2ccc(C(C)C(=O)Nc3ccnnc3)cc2)cc1 (stereo not shown) [Example 6.12] | 130 nM |
| CCCCn1ccc(C#Cc2ccc(C(C)C(=O)NCC)cc2)cc1=O (stereo not shown) [Example 7.35] | 2100 nM |
| CCNC(=O)C(C)c1ccc(C#Cc2ccc(OC(C)C)cc2)cc1 (stereo not shown) [Example 7.24] | 260 nM |

| SMILES | IC50 |
| --- | --- |
| CCOc1ccc(C#Cc2ccc(C(C)C(=O)NC3CCOC3)cc2)cc1 (stereo not shown) [Example 6.9] | 1800 nM |
| CCOc1ccc(C#Cc2ccc(C(C)C(=O)Nc3nncs3)cc2)cc1 (stereo not shown) [Example 6.23] | 23100 nM |
| CCOc1ccc(C#Cc2ccc(C(C)C(=O)NCc3cnco3)cc2)cc1 (stereo not shown) [Example 6.24] | 1800 nM |
| CCCOc1ccc(C#Cc2ccc(C(C)C(=O)NCC)cc2)c(OC)c1 (stereo not shown) [Example 7.41] | 510 nM |
| CCNC(=O)C(C)c1ccc(C#Cc2cnc(NC3CC3)nc2)cc1 (stereo not shown) [Example 2.4] | 390 nM |
| CCNC(=O)C(C)c1ccc(C#Cc2cnc(NCc3ccccc3)nc2)cc1 (stereo not shown) [Example 2.13] | 240 nM |
| CCOc1ccc(C#Cc2ccc(C(C)C(=O)NC(C)(C)C#N)cc2)cc1 (stereo not shown) [Example 6.26] | 18700 nM |
| CCOc1ccc(C#Cc2ccc(CCC(=O)NC)cc2)cc1 [Example 1.1, 3-[4-(4-Ethoxy-phenylethynyl)-phenyl]-N-methyl-propionamide] | 4300 nM |
| CCNC(=O)C(C)c1ccc(C#Cc2ccc(OC3CCCC3)cc2)cc1 (stereo not shown) [Example 7.46] | 110 nM |
| CCNC(=O)C(C)c1ccc(C#Cc2ccc(OCCn3ccnc3)cc2)cc1 (stereo not shown) [Example 5.18] | 1900 nM |
| CCNC(=O)C(C)c1ccc(C#Cc2cnc(NC(C)C)nc2)cc1 (stereo not shown) [Example 2.1, N-Ethyl-2-[4-(2-isopropylamino-pyrimidin-5-ylethynyl)-phenyl]-propionamide] | 690 nM |
| CCOc1ccc(C#Cc2ccc(CC(=O)NC)cc2)cc1 [Example 1.6] | 5400 nM |
| CCNC(=O)C(C)c1ccc(C#Cc2ccc(OC(C)c3ccncc3)cc2)cc1 (stereo not shown) [Example 5.8] | 1500 nM |
| CCNC(=O)C(C)c1ccc(C#Cc2ccc(SC)cc2)cc1 (stereo not shown) [Example 7.7] | 250 nM |
| CCNC(=O)C(C)c1ccc(C#Cc2cccc(OCc3ccccc3)c2)cc1 (stereo not shown) [Example 7.11] | 380 nM |
| CCOc1ccc(C#Cc2ccc(C(C)C(=O)Nc3nnc(C)o3)cc2)cc1 (stereo not shown) [Example 6.3] | 830 nM |
| CCNC(=O)C(C)c1ccc(C#Cc2ccc3c(c2)C(=O)CC3)cc1 (stereo not shown) [Example 7.18] | 2200 nM |
| CCNC(=O)C(C)c1ccc(C#Cc2ccc(CNC(C)=O)cc2)cc1 (stereo not shown) [Example 7.26] | 25500 nM |
| CCOc1ccc(C#Cc2ccc(C(C)C(=O)NCC(N)=O)cc2)cc1 (stereo not shown) [Example 1.10] | 530 nM |
| CCNC(=O)C(C)c1ccc(C#Cc2ccc(OC3CCCOC3)cc2)cc1 (stereo not shown) [Example 5.11] | 870 nM |
| CCNC(=O)C(C)c1ccc(C#Cc2ccc(OCCC(F)(F)F)cc2)cc1 (stereo not shown) [Example 5.14] | 110 nM |

| SMILES | IC50 |
| --- | --- |
| CCNC(=O)C(C)c1ccc(C#Cc2cnc(OC3CCC3)nc2)cc1 (stereo not shown) [Example 3.2] | 400 nM |
| CCNC(=O)C(C)c1ccc(C#Cc2cnc(NC3CCCC3)nc2)cc1 (stereo not shown) [Example 2.3] | 710 nM |
| CCNC(=O)C(C)c1ccc(C#Cc2cnc(N3CCC4(CC4)C3)nc2)cc1 (stereo not shown) [Example 2.10] | 2300 nM |
| CCOc1ccc(C#Cc2ccc(C(C)C(=O)NC3CCOCC3)cc2)cc1 (stereo not shown) [Example 6.17] | 18700 nM |
| CCCOc1ccc(C#Cc2ccc(C(C)(C)C(N)=O)cc2)cc1 [Example 1.19] | 29200 nM |
| CCOc1ccc(C#Cc2ccc(C(C)C(=O)Nc3ccncn3)cc2)cc1 (stereo not shown) [Example 6.2] | 520 nM |
| CCNC(=O)C(C)c1ccc(C#Cc2ccnc(Oc3cncnc3)c2)cc1 (stereo not shown) [Example 7.38] | 2900 nM |
| CCNC(=O)C(C)c1ccc(C#Cc2ccc3[nH]nnc3c2)cc1 (stereo not shown) [Example 7.19] | 7700 nM |
| CCNC(=O)C(C)c1ccc(C#Cc2ccc(OCCc3cn[nH]c3)cc2)cc1 (stereo not shown) [Example 5.17] | 930 nM |
| CCOc1ccc(C#Cc2ccc(C(C)C(=O)Nc3ccn[nH]3)cc2)cc1 (stereo not shown) [Example 6.20] | 8300 nM |
| CCOc1ccc(C#Cc2ccc(C(C)C(=O)NC)cc2)cc1 (stereo not shown) [Example 1.3] | 220 nM |
| CCNC(=O)C(C)c1ccc(C#Cc2cnc(N(C)C3CC3)nc2)cc1 (stereo not shown) [Example 2.14] | 6800 nM |
| CCOc1ccc(C#Cc2ccc(CC(C)C(=O)NC)cc2)cc1 (stereo not shown) [Example 1.24] | 2700 nM |
| CCOc1ccc(C#Cc2ccc(C(C)C(=O)NC(C)CC)cc2)cc1 (stereo not shown) [Example 1.13] | 2800 nM |
| CCNC(=O)C(C)c1ccc(C#Cc2ccc(OC)nc2)cc1 (stereo not shown) [Example 7.28] | 2900 nM |
| CCCOc1ccc(C#Cc2ccc(C(C)C(=O)NCC)cc2)c(C)c1 (stereo not shown) [Example 7.42] | 90 nM |
| CCOc1ccc(C#Cc2ccc(C(C)C(=O)Nc3cccc(OC)n3)cc2)cc1 (stereo not shown) [Example 6.4] | 410 nM |
| CCOc1ccc(C#Cc2ccc(C(C)C(=O)Nc3cc(C)[nH]n3)cc2)cc1 (stereo not shown) [Example 6.21] | 25500 nM |
| CCOc1ccc(C#Cc2ccc(C(C)C(=O)Nc3ccccc3)cc2)cc1 (stereo not shown) [Example 1.15] | 80 nM |
